Holding throughout (experiment): NCI tumour cell line growth inhibition, 48 h
Test [1] has as its system RXF-631 renal.
For test [2], the system named is DMS 114 small cell lung.
The test system of test [3] is M19-MEL melanoma.
The subject of test [4] is XF 498 CNS.
The subject of test [5] is DLD-1 colon.
In test [6] the test system is DMS 273 small cell lung.
Test [7] concerns MDA-N.
Test [8] deals with KM20L2 colon.
Test [9] concerns P388 leukemia.
For test [10], the system named is HOP-18 NSCLC.
For test [11], the system named is SN12K1 renal.

Where “and” joins values, the source holds several entries; their conditions need not be identical. Equal values may be shown once.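 Each compound was tested at five concentrations against cells in 96-well plates for 48 hours. GI50 marks 50% less growth. TGI: total growth inhibition.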 Where a SMILES comes first, the peptide text is derived from it. [ ]: non-standard residue; d: D form. Phe(F5) = N[CH](Cc1c(F)c(F)c(F)c(F)c1F)C(=O)O

As for `CN(C)c1ccc2c(NCCCCCCNc3ccnc4cc(N(C)C)ccc34)ccnc2c1`, the TGI is greater than 100 µM in [1]; 66.6 µM in test [2]; 95.3 µM in test [3]; 11.9 µM in [4]; greater than 100 µM in test [5]; 21.3 µM in [6].

For `CC[C@](C)(O)C(=O)O[C@H]1C(=O)O[C@@H]2C[C@H]3C(C)=CC(=O)[C@@H](O)[C@]3(C)[C@H]3[C@@]4(O)OC[C@]32[C@@H]1[C@@H](C)[C@H]4O`, the TGI in test [1] was 2.77 µM; in [7], 2.29 µM; in [8] it was 4.77 µM and 16.9 µM; in test [2], less than 0.0257 µM; in test [3], 0.0957 µM and 0.069 µM; in [9], 0.198 µM. In addition, the TGI in test [10] is 0.977 µM and 3.23 µM; in [11] it was 0.0598 µM; in test [6], 0.0425 µM and 0.205 µM. Moreover, the GI50 is 0.267 µM and 0.136 µM in [8]; less than 0.0124 µM in [2]; 0.0233 µM in test [3]; 0.162 µM and 0.359 µM in test [10]; 0.0127 µM in test [6].

Regarding `Nc1cc(=O)[nH]c(SC2=NC(N)CC(O)C2)n1` (centres undefined), the TGI in [8], in test [2], in test [3], in test [4], in [5] and in test [10] was greater than 100 µM in each case. The TGI in [6] is greater than 100 µM.

In the case of `CC(=O)[O][Pb]([O]C(C)=O)([c]1ccccc1)[c]1ccccc1`, the GI50 in test [8] is 9.34 µM; in test [2], 1.44 µM; in test [3] it was 2.77 µM; in test [5], 6.38 µM; in [10] it was 6.5 µM; in test [6] it was 2.88 µM. Also, the TGI in [8] was greater than 100 µM; in test [2], 4.16 µM; in test [3], 9.89 µM; in test [5], greater than 100 µM; in [10], greater than 100 µM; in test [6], greater than 100 µM.

`CN1CCc2c1nc(-c1ccccc1)c1c2N(C)CC1`: the TGI in test [8] is greater than 100 µM; in test [3], greater than 100 µM; in test [5], greater than 100 µM; in [10] it was 78.6 µM; in [6] it was greater than 100 µM.

For the molecule `CCC[CH2][Sn]([CH2]CCC)([O]C(C)=O)[O]C(C)=O`, the GI50 in test [8] is 1.9 µM; in test [4], 1.21 µM; in [5], 1.19 µM; in test [10] it was 1.42 µM; in test [6], 2.19 µM. Besides, the TGI worked out at 3.81 µM in test [8]; 5.12 µM in test [3]; 2.49 µM in [4]; 2.58 µM in [5]; 2.72 µM in [10]; 7.04 µM in test [6].

For `Nc1ncnc2c1ccn2C1OC2COP(=O)(O)OC2C1O` (centres undefined), the TGI in [7] was determined as 11.1 µM.

Regarding `O=C(O)[C@@H]1C2CC([C@@H]1C(=O)O)[C@H](N1C(=O)CCC1=O)[C@@H]2Br` (some centres undefined), the TGI in test [7] is greater than 100 µM.

As for `COC(=O)CCC(=O)N1Cc2cc(C)ccc2N(C(=O)CCC(=O)OC)Cc2cc(C)ccc21`, the TGI in [3], in test [4], in [5], in test [10] and in test [6] was greater than 100 µM in each case.

Turning to `C=C1C(=O)O[C@H]2C[C@@H](C)[C@@H]3CC(=O)OC[C@@]3(C)CC12` (some centres undefined), the TGI was 52.2 µM in test [8]; greater than 100 µM in test [3]; 74.3 µM in [5]; greater than 100 µM in test [10]; greater than 100 µM in test [6].

With `CC12CCC(=O)C=C1CCC1C2CCC2(C)C(C(=O)Cn3cnc4c(=S)nc[nH]c43)CCC12` (centres undefined), the TGI in test [7] was greater than 100 µM.

As to `CCc1ccc(NCc2cc(OC)c(OC)c(OC)c2)cc1`, the GI50 is less than 0.01 µM in test [7]; 3.4 µM and 27.6 µM in test [10]; 0.19 µM and 0.628 µM in test [6]. For the same molecule, the TGI in [7] was 1.17 µM and 0.772 µM; in test [8], 1.32 µM and 1.64 µM; in test [2], 4.9 µM and 10.2 µM; in test [3], 35.3 µM and > 87.8 µM; in test [4], 21.7 µM and 53.9 µM; in test [5], greater than 100 µM. Besides, the figures for the TGI in [10] and in test [6] were greater than 100 µM and 13 µM, respectively.

Regarding `CS(=O)(=O)CC1=Nc2nnc(CCCCCCCc3nnc4n3C(=O)C(CS(C)(=O)=O)=N4)n2C1=O`, the TGI in test [8], in test [2], in test [3], in test [4] and in test [10] was greater than 100 µM throughout.

Consider `COC(=O)C(CC(C)C)NC(=O)C(Cc1cnc[nH]1)NC(=O)CNC(=O)C(NC(=O)C(C)NC(=O)C(Cc1c[nH]c2ccccc12)NC(=O)C(CCC(=O)O)NC(=O)C(N)Cc1c(F)c(F)c(F)c(F)c1F)C(C)C` (centres undefined) (H-[Phe(F5)]EWAVGHL-OMe; configuration not given here), for which the TGI is greater than 12.5 µM in test [7]; greater than 100 µM in test [8]; greater than 100 µM in [2]; greater than 100 µM in test [3]; greater than 100 µM in test [4]; greater than 100 µM in test [5]. Also, the TGI in test [10] and in test [6] was greater than 100 µM each time.

In turn, `Cn1c(=O)c2[nH]c(/N=N/N3CCN(CCO)CC3)nc2n(C)c1=O` displayed a TGI in test [7] greater than 100 µM.

With `COc1ccccc1[N-]C(C1=C([O-])c2ccccc2C1=O)c1ccccc1.COc1ccccc1[N-]C(C1=C([O-])c2ccccc2C1=O)c1ccccc1.[Cu+2]` (centres undefined), the GI50 is 12.7 µM in test [1]; 25.4 µM in [8]; 3.01 µM in test [2]; 41.7 µM in test [3]; 3.7 µM in test [5]; 18.3 µM in test [10]. Also, the GI50 in test [6] is 4.59 µM. Besides, the TGI in test [1] is greater than 100 µM; in test [8] it was greater than 100 µM; in [2] it was greater than 100 µM; in test [3], greater than 100 µM; in test [5] it was greater than 100 µM; in test [10] it was 95.1 µM. For the same molecule, in test [6], the TGI is greater than 100 µM.

Consider `O=C(NCCCCCCNC(=O)c1cccc2ccccc12)c1cccc2ccccc12`, for which the TGI in test [1] was greater than 100 µM; in [8], greater than 100 µM; in test [2] it was greater than 100 µM; in test [4], 9.97 µM; in test [5] it was greater than 100 µM; in [10], 76.8 µM. The molecule further showed a TGI in [6] of 3.46 µM.

In the case of `COC12C=CC(CC1)c1c(O)ccc(O)c12` (centres undefined), the TGI is greater than 100 µM in test [8]; greater than 100 µM in test [2]; greater than 55.4 µM in [3]; 44 µM in test [4]; greater than 100 µM in test [5]; greater than 100 µM in test [10]. In test [6], the TGI is greater than 87 µM.

As for `O=C(O)CS(=O)(=O)C(c1ccccc1)c1ccccc1`, the TGI in test [7] is greater than 100 µM.

`CC(=O)OC1c2ccccc2CC2(OC(C)=O)c3ccccc3C12` (centres undefined): in test [7], the TGI is greater than 100 µM.

With `CC1=C2CCCC2C/C(=N/Nc2ccc([N+](=O)[O-])cc2[N+](=O)[O-])CC1` (centres undefined), the TGI in test [1], in test [8], in [2], in test [3], in test [4] and in test [10] was greater than 100 µM in each case. The molecule further returned a TGI in test [6] greater than 100 µM.

As for `CC1CC2C(=O)NC(=O)C2c2[nH]c3ccccc3c21` (centres undefined), the TGI in test [2], in [3], in [4], in test [5] and in [6] was greater than 100 µM throughout.

The molecule `CC1=CC(=O)c2c(O)cccc2C1=O` showed a TGI in test [7] of 3.23 µM.

Turning to `Cc1ccc2c(c1)C1(C)OC(CC(N)C1O)O2` (centres undefined), the TGI in test [2], in test [3], in test [5], in [10] and in test [6] was greater than 100 µM in each case.

As for `COC(=O)[C@@H]1CSC(=S)N1C(=O)C[C@H]1CC=CC[C@H]1CC(=O)Sc1ccccc1`, the TGI in test [8] is 39 µM; in test [3] it was 47.1 µM; in test [4] it was 34.5 µM; in test [5] it was 35.3 µM; in [10], 61.1 µM; in [6], 44.1 µM.

In test [7], `O=C(O)CSSCC(=O)O` registered a TGI greater than 100 µM.

As to `CC(C)(C(=O)NN)c1ccccc1`, the TGI in test [7] is greater than 100 µM.

With `CC1(Sc2ccccc2)CN(Cc2ccccc2)C1=O` (centres undefined), the TGI in [1], in test [8], in test [2], in [3], in [4] and in test [5] was greater than 100 µM throughout. For the same molecule, the TGI in test [10] and in test [6] was greater than 100 µM throughout.

Take `C=C1C(=O)OC2CC3(C)C=CC(=O)C(=C)C3CC12` (centres undefined): the TGI in test [8] was 6.88 µM; in test [2], 9.57 µM; in test [3], 3.51 µM; in [4] it was 3.35 µM; in test [5] it was 1.51 µM; in test [10] it was 8.77 µM. This molecule displayed a TGI in test [6] of 2.64 µM.

In the case of `CCOP(=O)(OCC)C1CCCCOC1=O` (centres undefined), the TGI in test [1], in test [8], in [2], in [3], in [4] and in test [5] was greater than 100 µM each time. Also, the TGI in [10] and in test [6] was greater than 100 µM throughout.

On to `C=C(C)[C@@H]1CC=C(CO)CC1`, for which the TGI in [1] was 1210 µM; in test [7], greater than 10 µM; in test [8] it was 945 µM; in test [2], 709 µM; in [3], 793 µM; in [4] it was 680 µM. Besides, the TGI in test [5] is 922 µM.

(Values after PubChem BioAssay (NCI).)
